Test results from patent publication US10139420B2, “Methods for treating vaso-occlusive crisis using non-modified annexin V” (ISNERM (Institut National de la Sante et de la Recherche …, priority 2011, dated 2018).
“Also recorded” adds a separate entry of the source.

Legend:
[1] = test system: wild type mouse erythrocytes; assay: Echinocyte conversion and MP shedding by isolated erythrocytes (LORCA ektacytometer, microscopy, FACS), wild type; assay type: cell-based; conditions: for increase in MP shedding in wild type erythrocytes: peptides 25 μM, versus control peptides
Method: (§1) Mouse blood was obtained through retro-orbital sinus puncture, mixed with anti-coagulant heparin buffer (5 UI/ml), and collected on citrated tubes. Blood diluted 1:1 with PBS (Gibco-Life Sciences) was placed onto histopaque-1083 (Sigma) density gradients for centrifugation (600 g, 25 minutes). Erythrocyte pellets were resuspended, washed in DMEM and stored for up to 4 hours at room temperature. Erythrocyte surface CD47 expression was assessed by FACS. Fresh RBC were washed and blocked with PBS-BSA 5% for 30 min and immunoreacted with mouse-specific fluoroisothiocyanate (FITC)-coupled anti-CD47 monoclonal antibody (clone mIAP301; BD Biosciences, Le Pont de Claix, France), or matched irrelevant IgG2aκ isotype for 45 min in 2% PBS-BSA. Erythrocytes were washed in PBS-BSA 2% prior to FACS analysis. Erythrocyte phenotypes were analyzed by […] electronic microscopy. Briefly, mouse erythrocytes were fixed with glutaraldehyde 1% and paraformaldehyde 4%, dehydrated and embedded in Epon™ epoxy resin. Sections contrasted with uranyl acetate and lead citrate were examined with a JEOL JEM 1010 microscope. Average apparent spicule number was determined by direct counting in 80 to 120 cells per condition.
(§2) To trigger MP shedding, erythrocyte were suspended in polyvinylpyrrolidone (31 mPa.s) and placed in a rotating type LORCA ektacytometer (R&R Mechatronics, Hoorn, The
(§3) Netherlands) in the absence or presence of TSP1 (25 μg/ml), or TSP1-derived peptides 4N1-1 or 4N1-2 (25 μM). Shear rate was applied according to the builder's program (1500 s^−1; 2.5 minutes). Erythrocytes were immediately separated and supernatant PS^+ MP quantified by FACS. Concentrated MP stocks were generated from 10 to 20 ml of supernatant from erythrocytes suspended in RPMI-1640 (4.10^6/ml) and treated with 4N1-1. Suspensions were centrifuged at 400 g for 15 min to discard cells, and ultracentrifuged at 20500 g for 45 min to pellet MP, which were resuspended in filtered (0.2 μm) DMEM and stored at −80° C. MP concentrations were determined as previously described (20). Briefly, MP were labeled with 2 μl FITC-conjugated annexin-V (Roche Diagnostics, France) diluted in 100 μl reaction buffer with 5 mM CaCl2. CaCl2 was omitted in negative controls. MP were analyzed on a Coulter EPICS XL flow cytometer (Beckman Coulter). MP were identified in forward light scatter (FSc) and side-angle light scatter (SSc) intensity dot plots set at logarithmic gain, as events of 0.1-1 μm in diameter. MP-size events were analyzed in FL/FSC fluorescence dot plots to determine annexin-V labeling. MP concentration was determined with respect to calibrated fluorescent microbeads (Flowcount). To determine erythrocyte origin, MP were double labeled with rat PE-Cy7-coupled mouse-specific anti-Ter119 antibody (Biolegend via Ozyme, France), or matched irrelevant IgG2bκ isotype.

[2] = test system: SAD mouse erythrocytes; assay: Echinocyte conversion and MP shedding by isolated erythrocytes (LORCA ektacytometer, microscopy, FACS), SAD; assay type: cell-based; conditions: for raise in MP shedding in SAD erythrocytes: peptides 25 μM, versus control peptides
Method: as §1, §2, §3

[3] = test system: SAD mice; assay: Circulating PS+ MP in platelet-free plasma by FACS (annexin-V labeling), SAD mice; assay type: in vivo, mouse; conditions: injected to mice, compared with whole TSP1
Method: We characterized the induction of VOC in SAD transgenic mice (18, 19) according to our previously published method, in response to the intravenous administration of TSP1 (1 mg/kg), TSP1-derived peptides 4N1-1 or 4N1-2, or purified erythrocyte MP. Briefly, mice were anesthetized with isoflurane and monitored to prevent any cardiorespiratory depression. Mice were shaved and placed in the decubitus position on a heating blanket (38° C.). We used a Vivid 7 echograph (GE Medical Systems®, Horten, Norway) equipped with a 12-MHz linear transducer (12 L). […] A pulsed Doppler spectrum was recorded and peak systolic, end-diastolic and time-average mean BFV were measured in the renal artery, with Doppler beam angle correction. To calculate cardiac output, spatial flow profiles were analyzed in parasternal long-axis B-mode images of the pulmonary artery and BFV were measured as above. […] Circulating MP were quantified by FACS.
Netherlands) in the absence or presence of TSP1 (25 μg/ml), or TSP1-derived peptides 4N1-1 or 4N1-2 (25 μM). […] Erythrocytes were immediately separated and supernatant PS^+ MP quantified by FACS. […] MP concentrations were determined as previously described (20). […] MP were analyzed on a Coulter EPICS XL flow cytometer (Beckman Coulter). […] MP-size events were analyzed in FL/FSC fluorescence dot plots to determine annexin-V labeling. […]

[4] = test system: SV40-transformed mouse lymph node endothelial cells (SVEC4-10); assay: Endothelial ROS production (H2DFF-DA assay); assay type: cell-based
Method: SV40-transformed mouse lymph node endothelial cells (SVEC4-10 from ATCC) were obtained from LGC Promochem, France and grown in Dulbecco's Modified Eagle Medium (DMEM) supplemented with 20% neonatal calf serum (NCS; Dominique Dutscher) in 24 well plaques at 37° C. with 5% CO2. Confluent SVEC monolayers in 96 well plates were incubated with 25 MP/μl for up to 2 h. To determine ROS production, 5-(6-)Carboxy-2′,7′-difluorodihydrofluorescein diacetate (H2DFF-DA; 10 μM), was supplemented to the medium for the last 30 minutes, and fluorescence was read in an automated fluorescence plate reader. For erythrocyte adhesion experiments, MP-primed SVEC monolayers were washed and incubated with RBC suspensions in DMEM (1.10^6 RBC/ml). Supernatant cells were discarded after 30 min, and adherent cells were counted by phase contrast microscopy in 5 random fields per well (400×). All conditions were tested 3 to 6 times, in triplicates. In cell cycle analysis, SVEC were cultured up to 70% confluency, washed and placed in DMEM with 0.05% NCS with or without RBC MP. After 16 hours, SVEC were trypsinized, fixed overnight in ice-cold 70% ethanol-H20, and incubated in 0.05% Triton X100, 100 μg/ml RNase A plus 50 μg/ml propidium iodide for 1 h in the dark. Total DNA content was determined by FACS. DNA profiles were divided as sub-G1 (apoptosis), G0/G1 (resting) and G2/M (proliferation) phases of the cell cycle. Data shown is the mean percentage of cells in each phase, in 3 to 6 independent experiments.

[5] = test system: Mesenteric arteries; assay: Microvascular dilation of perfused mesenteric resistance arteries (pressure myograph); design: species or system mouse
Method: Mesenteric arteries were removed from terminally anesthetized mice and placed them in ice-cold physiological salt solution (PSS). 4-6 arterial segments from each mouse were used. A segment of mesenteric artery was cannulated and mounted in a video-monitored perfusion system as described (21). Arterial segments were bathed in a 5 ml organ bath containing a PSS maintained at pH 7.4, with pO2 and pCO2 of 160 mm Hg and 37 mm Hg, respectively. Arterial diameter was continuously recorded by video (Living System Instrumentation Inc., Burlington, Vt.). Pressure and flow rates could be changed independently. Diameter changes were measured in each segment when the intraluminal pressure was set at 75 mm Hg in order to measure dilation. Artery viability was tested with potassium-rich solution ([…]; PSS). The endothelium was considered functional when 80% relaxation was obtained with 10^−6 acetylcholine (ACH), after phenylephrine (PE)-induced preconstriction (50% of maximal contraction with KCl 80 mM). A cumulative concentration-response curve to ACH (10^−7-10^−4 M) was constructed after preconstriction. Sodium nitroprusside (SNP, 100 μM) was tested after the ACH curve. Intraluminal flow was then increased to 21 μl/minute and MP were injected in the vessel. A new cumulative concentration-response curve to ACH after was constructed after new PE-induced preconstriction. […]

[6] = test system: SAD transgenic mice; assay: Vaso-occlusive crises in mice: renal artery blood flow velocity by Echo-Doppler, cardiac output, renal histology; assay type: in vivo, mouse; conditions: SAD RBC MP pre-incubated with annexin-V and washed, 300.10^3 MP/mouse
Method: We characterized the induction of VOC in SAD transgenic mice (18, 19) according to our previously published method, in response to the intravenous administration of TSP1 (1 mg/kg), TSP1-derived peptides 4N1-1 or 4N1-2, or purified erythrocyte MP. Briefly, mice were anesthetized with isoflurane and monitored to prevent any cardiorespiratory depression. Mice were shaved and placed in the decubitus position on a heating blanket (38° C.). We used a Vivid 7 echograph (GE Medical Systems®, Horten, Norway) equipped with a 12-MHz linear transducer (12 L). The ultrasound probe was placed on the left side of the abdomen for examination of renal arteries, or in left lateral decubitus for cardiac output acquisition with transducer on the chest. Data were transferred on-line to an EchoPAC ultrasound image analysis workstation (GE Medical Systems®). Two-Dimensional ultrasound imaging of the abdomen in left-sided longitudinal B-mode allowed kidney width and height measurements. Color-coded blood flow detection by Doppler enabled renal arteries to be localized. A pulsed Doppler spectrum was recorded and peak systolic, end-diastolic and time-average mean BFV were measured in the renal artery, with Doppler beam angle correction. To calculate cardiac output, spatial flow profiles were analyzed in parasternal long-axis B-mode images of the pulmonary artery and BFV were measured as above. The following formula was applied: CO=[(V^mean·60)·(π·(Dpa/2^2)], where CO is the cardiac output in ml/minute, V^mean is the mean time-averaged BFV in cm/s and Dpa is the pulmonary artery diameter in cm. Kidney sizes and BFV were determined by the same investigator, as means of 5 to 8 measurements. Repeatability for cardiac output measurements was verified. We controlled and confirmed that kidney size was similar between SAD and wild type mice. After sacrifice, kidneys were dissected, dehydrated, mounted in paraffin, sectioned and stained by Masson trichrome. Vascular congestion was observed by phase-contrast microscopy, as large erythrocyte aggregates occluding kidney capillaries and larger vessels. In some experiments, TSP1 (1 mg/kg) or control BSA (1 mg/kg) were injected. After 5 minutes, mice were terminally anesthetized by pentobarbital overdose. Whole blood was collected through cardiac puncture, centrifuged (400 g, 15 minutes) to eliminate erythrocytes and leukocytes, and double centrifuged (12500 g, 5 minutes) to eliminate platelets with minimal activation. Supernatants were considered platelet-free plasma (PFP). Circulating MP were quantified by FACS.
We evaluated the concept that TSP1 influences VOC during SCD in vivo. We used SAD transgenic mice that express a mutated human hemoglobin β-chain known to cause sickle cell formation and sensitivity to VOC (18, 19).

[7] = scanning electron microscopy, after peptide treatment
[8] = endothelial PKC activity inhibited, 1 μM
[9] = endothelial NOS blocked, L-NAME 100 μM, enantiomer D-NAME as control

4N1-1: Synthetic TSP1 carboxyterminal peptide RFYVVMWK (SEQ ID NO:1), CD47 agonist (4N1-1)
echinocytosis: change in wild type echinocytes ([1]; peptide 25 μM): doubling | spicule numbers in healthy wild type erythrocytes [1, 7]: not in healthy wild type erythrocytes | effect on sickle cells ([2]; SAD erythrocytes, TSP1 or peptide): did not affect sickle cells | increase in spicule numbers in SAD RBC [2, 7]: 20% | increase in SAD echinocytes ([2]; under shear, TSP1 (25 μg/ml) or peptide (25 μM), vs control): 50% | effects on circulating PS+ MP after injection of the peptide [3]: comparable to whole TSP1

4N1-2: Synthetic truncated control peptide RFYVVM (SEQ ID NO:2) (4N1-2)
increase in MP shedding in wild type erythrocytes [1]: no effect | raise in MP shedding in SAD erythrocytes [2]: no effect

Cn1cc(C2=C(c3cn(CCCSC(=N)N)c4ccccc34)C(=O)NC2=O)c2ccccc21 [Ro-31-8220]
ROS generation induced by SAD RBC MP [4, 8]: prevented

COc1cc(C(C)=O)ccc1O [apocynin]
ROS generation induced by SAD RBC MP ([4]; endothelial NADPH oxydase blocked, 100 μM, 30 minutes): prevented

COC(=O)[C@@H](N)CCCNC(=N)N[N+](=O)[O-] [L-NAME]
ROS generation induced by SAD RBC MP [4, 9]: entirely inhibited

COC(=O)[C@H](N)CCCN=C(N)N[N+](=O)[O-] [D-NAME]
ROS generation induced by SAD RBC MP [4, 9]: had no effects

c1ccc2c(c1)[I+]c1ccccc1-2 [DPI]
ROS generation induced by SAD RBC MP ([4]; endothelial NADPH oxydase blocked, 10 μM, 30 minutes): prevented

4NGG: Mutated control peptide RFYGGMWK (SEQ ID NO:3) devoid of the VVM motif (4NGG)
increase in MP shedding in wild type erythrocytes [1]: no effect | raise in MP shedding in SAD erythrocytes [2]: no effect

CC1(C)CC(O)CC(C)(C)N1[O] [Tempol]
effect alone on vessel diameter ([5]; Tempol alone, vs control): −5 % vessel diameter | reduction of the deleterious effects of SAD RBC MP on vasodilation ([5]; vessel treated 10 μM, 30 minutes, vs MP alone): −50%

Cn1c2ccccc2c2c3c(c4c5ccccc5n(CCC#N)c4c21)C(=O)NC3 [Gö-6976]
ROS generation induced by SAD RBC MP [4, 8]: prevented

B1: annexin-V: Recombinant protein that binds externalized phosphatidylserine in a calcium dependent manner (protein, UniProt P08758 2-320, looked up)
Annexin A5: AQVLRGTVTDFPGFDERADAETLRKAMKGLGTDEESILTLLTSRSNAQRQEISAAFKTLFGRDLLDDLKSELTGKFEKLIVALMKPSRLYDAYELKHALKGAGTNEKVLTEIIASRTPEELRAIKQVYEEEYGSSLEDDVVGDTSGYYQRMLVVLLQANRDPDAGIDEAQVEQDAQALFQAGELKWGTDEEKFITIFGTRSVSHLRKVFDKYMTISGFQIEETIDRETSGNLEQLLLAVVKSIRSIPAYLAETLYYAMKGAGTDDHTLIRVMVSRSEIDLFNIRKEFRKNFATSLYSMIKGDTSGDYKKALLLLCGEDD
ROS generation induced by SAD RBC MP ([4]; MP PS previously saturated with recombinant annexin-V, 1 μg/ml for 1 hour): entirely inhibited; also recorded: prevented | VOC parameters after injection of annexin-V-saturated SAD RBC MP [6]: failed to modify VOC parameters | VOC parameters after injection of annexin-V-saturated SAD RBC MP ([6]; listed as Annexin-V): abrogated the induction of VOC
